Test results: publication PMC4102417 (PLoS Neglected Tropical Diseases, 2014)
Where a name gives a salt, the structure may show the parent alone. Read-outs that look alike come from different tables or passages of the source.

Key:
in vitro = format: cell-based, murine; settings: mouse
[1] = test system: T. cruzi (Tulahuen strain); assay: microbe, parasite or virus in culture; format: cell-based, Trypanosoma cruzi; settings: for EC50: read-out: T. cruzi EC50; for activity at 10 µM: read-out: T. cruzi % growth @ 10 uM (Amastigotes)
Procedure, shortened: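 Tulahuen parasites expressing beta-galactosidase were added (1×10^4 trypomastigotes/well) to 3T3 fibroblasts plated 24 h earlier, 4 h before compound (10 µM final).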

[2] = test system: T. cruzi (Tulahuen strain); assay: Mouse model of acute T. cruzi infection; format: in vivo, BALB/c mice; settings: oral gavage days 7-11 post-infection, doses of Table 5
Experimental: Age 8–10 week-old BALB/c female mice were obtained from Harlan Laboratories. Mice were infected with 1×10^4 tissue culture derived wild-type trypomastigotes of the Tulahuen strain by subcutaneous injection on day 0. They were administered test drugs in groups of five by oral gavage on days 7–11. All drugs were dissolved in vehicle composed of sodium carboxymethylcellulose 0.5% w/v, benzyl alcohol 0.5% v/v, Tween 80 0.4% v/v diluted in 0.9% aqueous NaCl solution. Parasitemia was quantified by examining tail blood specimens at times points indicated in Figures 2, 3, S4, and S5 as previously described.
Selected drugs identified in the above screens were tested alone or in combination in the mouse model of T. cruzi infection. In the first experiment, we focused on posaconazole and benznidazole because of their advanced clinical status for treating Chagas disease. Since benznidazole and posaconazole are known to have curative activity as monotherapies, we used sub-curative doses so that additive or synergistic interactions could be detected when used in combinations. The other drugs were administered at doses described in the literature for treating mice. Briefly, mice were gavaged once or twice daily with a given drug or combination on days 7–11 post-infection. We conducted a second experiment (Figure 3) examining the same drugs with the purpose of confirming and expanding upon the initial results shown in Figure 2.

3T3 fibroblast cells = assay: in vitro; format: cell-based, murine; settings: for CC50: 3T3 fibroblasts, 72 hours, separate assays separated by semicolons, read-out: Mammalian cell CC50; for activity at 10 µM: Mus musculus, NIH3T3, 72 h, read-out: Mammalian (3T3) cell % growth at 10 uM
[3] = 3T3 fibroblasts, 72 hours, separate assays separated by semicolons, read-out: Mammalian cell CC50
[4] = Trypanosoma cruzi, TULAHUEN, Fibroblast, 120 h, intracellular amastigotes, 5 days, separate assays separated by semicolons
[5] = Trypanosoma cruzi, TULAHUEN, Fibroblast, 120 h, 10 uM, Table S2
[6] = average mammalian cell CC50 divided by average T. cruzi EC50
[7] = intracellular amastigotes, 5 days, separate assays separated by semicolons

| Structure (SMILES) | CC50 (in vitro; [3]) [nM] | EC50 [1, 4] [µM] | activity at 10 µM (3T3 fibroblast cells; 10 uM, Table S2) [%] | activity at 10 µM [1, 5] [%] | also measured |
| --- | --- | --- | --- | --- | --- |
| Oc1ncnc2[nH]ncc12 [Allopurinol] | > 50000 | 2.8 |  |  | Selectivity index [1]: >17.9; parasitemia [2]: slight effects |
| CN(C)CCC=C1c2ccccc2CCc2ccccc21 [Amitriptyline, dimethyl(3-{tricyclo[9.4.0.0^{3,8}]pentadeca-1(15),3,5,7,11,13-hexaen-2-ylidene}propyl)amine] | 36300 | 3.56 | 100 | 15.7 | CC50 (3T3 fibroblast cells): 22 µM; Selectivity index [1, 6]: 5.7; EC50 [1, 7]: 6.6 µM |
| CN(C)CC/C=C1/c2ccccc2Sc2ccc(Cl)cc21 [Chlorprothixene, {3-[(9Z)-2-chloro-9H-thioxanthen-9-ylidene]propyl}dimethylamine] | 12900 | 2.35 | 97.1 | 1.8 | Selectivity index [1]: 5.2; EC50 [1, 7]: 2.6 µM |
| Cl.OC(c1cc(C(F)(F)F)nc2c(C(F)(F)F)cccc12)C1CCCCN1 (stereo not shown) [Mefloquine, [2,8-bis(trifluoromethyl)quinolin-4-yl](piperidin-2-yl)methanol hydrochloride] | 12100 | 6.1 | 94.7 | 2.6 | Selectivity index [1, 6]: 2.0 |
| CN(C)c1ccc(O)c2c1CC1CC3C(N(C)C)C(O)=C(C(N)=O)C(=O)C3(O)C(O)=C1C2=O.Cl (stereo not shown) [Minocycline, 4,7-bis(dimethylamino)-3,10,12,12a-tetrahydroxy-1,11-dioxo-1,4,4a,5,5a,6,11,12a-octahydrotetracene-2-carboxamide hydrochloride] | > 50000 | 9.8 | 83.2 | 10.2 | Selectivity index [1]: >5.1 |
| NCCC(O)(P(=O)(O)O)P(=O)(O)O [Pamidronate] | 25700 | 3 |  |  | Selectivity index [1, 6]: 8.6 |
| Cl.Fc1ccc(C2CCNCC2COc2ccc3c(c2)OCO3)cc1 (stereo not shown) [Paroxetine, 3-[(2H-1,3-benzodioxol-5-yloxy)methyl]-4-(4-fluorophenyl)piperidine hydrochloride] |  | 3.3 | 100 | 6.8 | CC50 (in vitro; Mammalian cell CC50 (nM)): 18800 nM; Selectivity index [1]: 4.2; EC50 [1, 7]: 5.6 µM |
| N=C(N)c1ccc(OCCCCCOc2ccc(C(=N)N)cc2)cc1 [Pentamidine, 2-hydroxyethane-1-sulfonic acid; 4-{[5-(4-carbamimidoylphenoxy)pentyl]oxy}benzene-1-carboximidamide] | > 50000 | 0.181 | 94.8 | 17.6 | EC50 ([1]; Trypanosoma cruzi, TULAHUEN, Fibroblast, Table S2, amastigotes): 0.18 µM; Selectivity index [1, 6]: >276 |
| CC[C@@H]([C@H](C)O)n1ncn(-c2ccc(N3CCN(c4ccc(OC[C@@H]5CO[C@@](Cn6cncn6)(c6ccc(F)cc6F)C5)cc4)CC3)cc2)c1=O [Posaconazole] |  |  |  |  | parasitemia [2]: some attenuation of parasitemia |
| CNc1ccccc1C(=O)N1CCc2c([nH]c3ccccc23)C1=O [RHETSININE, 2-{[2-(methylamino)phenyl]carbonyl}-1H,2H,3H,4H,9H-pyrido[3,4-b]indol-1-one] |  |  | 75.7 | 5.9 |  |
| C=CCN(C)CCCCCCOc1ccc(C(=O)c2ccc(Br)cc2)c(F)c1 [Ro 48-8071] |  |  |  |  | CC50 (3T3 fibroblast cells): 7.4 µM; EC50 [1, 7]: 0.41 µM |
| COc1ccc2c(c1)OC/C(=C/c1ccc(OC)c(OC)c1)C2=O [SAPPANONE A TRIMETHYL ETHER] |  |  | 74.6 | 7.5 |  |
| O=C1C=C2C=CC3CC2(O1)C1CCCCN31 (stereo not shown) [SECURININE, 14-oxa-7-azatetracyclo[6.6.1.0^{1,11}.0^{2,7}]pentadeca-9,11-dien-13-one] |  |  | 75 | 1.4 |  |
| CC1=CC(=O)C2C(C)(C)CCCC2(C)C1(O)CCc1ccoc1 (stereo not shown) [SOLIDAGENONE, 4-[2-(furan-3-yl)ethyl]-4-hydroxy-3,4a,8,8-tetramethyl-1,4,4a,5,6,7,8,8a-octahydronaphthalen-1-one] |  |  | 75.8 | 15.1 |  |
| O=C(CCCN1CCC2(CC1)C(=O)NCN2c1ccccc1)c1ccc(F)cc1 [SPIPERONE, 8-[4-(4-fluorophenyl)-4-oxobutyl]-1-phenyl-1,3,8-triazaspiro[4.5]decan-4-one] |  |  | 94.7 | 17.1 |  |
| CCC(C)(C)C(=O)OC1CC(C)C=C2C=CC(C)C(CCC3CC(O)CC(=O)O3)C21 (stereo not shown) [Simvastatin, 8-[2-(4-hydroxy-6-oxooxan-2-yl)ethyl]-3,7-dimethyl-1,2,3,7,8,8a-hexahydronaphthalen-1-yl 2,2-dimethylbutanoate] |  | 0.4 |  |  | CC50 at 72 h (in vitro; [3]): 4 µM |
| CCC(=C(c1ccccc1)c1ccc(OCCN(C)C)cc1)c1ccccc1 [TAMOXIFEN, {2-[4-(1,2-diphenylbut-1-en-1-yl)phenoxy]ethyl}dimethylamine] |  |  | 97 | 22.5 |  |
| Nc1nc(=S)c2[nH]cnc2[nH]1 [THIOGUANINE, 2-amino-6,7-dihydro-3H-purine-6-thione] |  |  | 98.3 | 14.8 |  |
| CCN(CC)CCOc1ccc2c(c1)C(=O)c1cc(OCCN(CC)CC)ccc1-2 [TILORONE, 2,7-bis[2-(diethylamino)ethoxy]-9H-fluoren-9-one] |  |  | 89 | 7.8 |  |
| CC1CCC2(NC1)OC1CC3C4CCC5CC(O)CCC5(C)C4CCC3(C)C1C2C (stereo not shown) [TOMATIDINE, 5',7,9,13-tetramethyl-5-oxaspiro[pentacyclo[10.8.0.0^{2,9}.0^{4,8}.0^{13,18}]icosane-6,2'-piperidine]-16-ol hydrochloride] |  |  | 100 | 8.5 |  |
| CC(C)c1c(O)ccc2c1CCC1C(C)(C)CCCC21C (stereo not shown) [TOTAROL, 4b,8,8-trimethyl-1-(propan-2-yl)-4b,5,6,7,8,8a,9,10-octahydrophenanthren-2-ol] |  |  | 67.4 | 21.3 |  |
| CN1CCN(CCCN2c3ccccc3Sc3ccc(C(F)(F)F)cc32)CC1 [TRIFLUOPERAZINE, 10-[3-(4-methylpiperazin-1-yl)propyl]-2-(trifluoromethyl)-10H-phenothiazine] |  |  | 94.7 | 20.4 |  |
| CC(C)c1ccc2c(c1O)CCC1C3=C(CCC21C)C(=O)OC3 (stereo not shown) [TRIPTOPHENOLIDE, 6-hydroxy-1-methyl-5-(propan-2-yl)-13-oxatetracyclo[8.7.0.0^{2,7}.0^{11,15}]heptadeca-2,4,6,11(15)-tetraen-14-one] |  |  | 83.1 | 13.8 |  |
| CN(C/C=C/C#CC(C)(C)C)Cc1cccc2ccccc12 [Terbinafine] | 51000 | 17.4 |  |  | Selectivity index [1]: 2.9 |
| CSc1ccc2c(c1)N(CCC1CCCCN1C)c1ccccc1S2 (stereo not shown) [Thioridazine, 10-[2-(1-methylpiperidin-2-yl)ethyl]-2-(methylsulfanyl)-10H-phenothiazine] | 6200 |  | 45.7 | 19.1 | CC50 (3T3 fibroblast cells): 8.66 µM |
| COC(=O)CC1C(C)(C)C(OC(C)=O)C2C(OC(C)=O)C34OC2(O)C1(C)C3CCC1(C)C4=CC(=O)OC1c1ccoc1 (stereo not shown) [[…], methyl 2-[14,18-bis(acetyloxy)-6-(furan-3-yl)-16-hydroxy-7,11,13,13-tetramethyl-4-oxo-5,17-dioxapentacyclo[13.2.1.0^{1,10}.0^{2,7}.0^{11,16}]octadec-2-en-12-yl]acetate] |  |  | 89.7 | 7.2 |  |
| CC(=O)O[C@@H]1CC2C(C)(C)[C@H](O)CC[C@]2(C)C2CC[C@@]3(C)[C@H](c4ccoc4)OC(=O)C4OC43[C@@]21C (stereo partly drawn) [alpha-DIHYDROGEDUNOL] |  |  |  |  | Mammalian (3T3) cell % growth at 10 uM (3T3 fibroblast cells; 10 uM, Table S2): 90.8%; T. cruzi % growth @ 10 uM (Amastigotes) ([1]; 10 uM, Table S2): 3.8% |
| CC(=O)OC1CC2C(C)(C)C(O)CCC2(C)C2CCC3(C)C(c4ccoc4)OC(=O)C4OC43C12C (stereo not drawn) [beta-DIHYDROGEDUNOL, 7-(furan-3-yl)-15-hydroxy-1,8,12,16,16-pentamethyl-5-oxo-3,6-dioxapentacyclo[9.8.0.0^{2,4}.0^{2,8}.0^{12,17}]nonadecan-19-yl acetate] |  |  | 76.3 | 21.8 |  |
| C=C1C2CCC3(C)C(c4ccoc4)OC(=O)CC13OC1CC(OC(C)=O)C(C)(C)C(CC(=O)OC)C12C (stereo not shown) [methyl 2-[5-(acetyloxy)-13-(furan-3-yl)-6,6,8,12-tetramethyl-17-methylidene-15-oxo-2,14-dioxatetracyclo[7.7.1.0^{1,12}.0^{3,8}]heptadecan-7-yl]acetate] |  |  | 84.1 | 1 |  |
| COC(=O)c1cc(O)c(=O)c2c(O)c(O)ccc2c1 [methyl 3,4,6-trihydroxy-5-oxo-5H-benzo[7]annulene-8-carboxylate] |  |  | 92.2 | 18.2 |  |
